{"source": "patent US9914910B2", "about": "“Methods of preserving and protecting pancreatic beta cells and treating or preventing diabetes by inhibiting NOX-1” (Eastern Virginia Medical School, priority 2013, dated 2018)", "key": {"INS-1 cells [1]": {"tested_on": "INS-1 cells", "assay": "ROS measurement (DCF-DA) after pro-inflammatory cytokine cocktail (PIC)", "format": "cell-based, rat", "procedure": "INS-1 cells were cultured in RPMI-1640 media (Life Technologies, Grand Island, N.Y.) supplemented with 10% fetal calf serum, 1% penicillin/streptomycin, 10 mM Hepes, 2 mM Lglutamine, 1 mM sodium pyruvate, and 0.05 mM 2-mercaptoethanol at 370 C with 5% CO2.\nCells treated for 1 hour were then washed with PBS prior to addition of 10 μM 6-Carboxy-2′,7′-Dichlorodihydrofluorescein Diacetate, Di(Acetoxymethyl ester) (DCF-DA, Life Technologies) for 30 min at 370 C. Post PBS wash cells were incubated at 370 C for 1 hour. Prior to fluorescence measurement (SpectraMax Molecular Devices, Sunnyvale, Calif.) at excitation 480 nm: emission 530 nm.\nElevation of cellular ROS in beta-cell lines INS-1 (rat beta-cell line) and βTC-3 (mouse beta-cell line) was evaluated by conversion of fluorescent substrate DCF-DA. Following one hour stimulation with a pro-inflammatory cytokine cocktail (PIC; IL-1β, TNF-α, and IFN-γ) detectable ROS elevated from control levels of 0.05±0.02 and 0.09±0.03 (INS-1 and βTC-3 respectively) to 0.25±0.04 and 0.23±0.03 (INS-1 and βTC-3 respectively). This increase was significant p<0.05 and p<0.01 (INS-1 and βTC-3 respectively)."}, "INS-1 cells [2]": {"tested_on": "INS-1 cells", "assay": "Caspase-3 assay (pro-caspase-3 cleavage) after PIC", "format": "cell-based, rat", "settings": "INS-1, PIC 4 hours, up to", "procedure": "A. Caspase-3 Assay: Pro-caspase-3 cleavage was measured using a caspase-3 Assay kit (BD Pharmigen, Franklin Lakes, N.J.) per the manufacturer's instructions; fluorescence being measured (SpectraMax, Molecular Devices, Sunnyvale, Calif.) at excitation 380 nm and emission 440 nm (INS-1) or 460 nm (βTC-3, mouse)."}, "[3]": {"tested_on": "NOX-1 gene expression in primary mouse islets", "assay": "PIC-induced NOX-1 gene expression (RT-PCR)", "format": "cell-based", "excerpt": "Human donor islets were obtained from integrated islet distribution project (http://iidp.coh.org) and cultured in CMRL media (Mediatech, Manassas, Va.). Mouse islets were freshly isolated from 8-week old male C57BL/6J mice (Jackson Laboratory, Bar Harbor, Me.) by common bile duct cannulation and collagenase digestion. Islets were hand picked prior to use. […] Total RNA was isolated using the RNeasy Mini Kit (Qiagen, Valencia, Calif.) and cDNA prepared using MMLV reverse transcriptase (Life Technologies) and random hexamers (Life Technologies). Jump Start Taq polymerase (Life Technologies) was used in PCR reactions. Primers used with SYBR Green 1 (Molecular Probes, Carlsbad, Calif.) probes: […] GAPDH forward [NT] ID NO: 3); GAPDH reverse [NT] NO: 4). RT-PCR reactions were performed in triplicate (CFX96 Bio-Rad, Hercules, Calif.). Taqman primers (Life Technologies) were also used."}, "human colon cancer cells": {"tested_on": "human colon cancer cells", "settings": "cited from earlier work"}}}
{"smiles": "CC(=O)c1ccc2c(c1)Nc1ccccc1S2", "note": "[ML171, 2-acetylphenothiazine]", "values": [{"measurement": "inhibition of PIC-induced ROS (DCFDA conversion)", "setting": "INS-1 cells [1]; INS-1, PIC 1 hour", "result": "dose dependent inhibition"}, {"measurement": "concentration of maximal protection from PIC-induced ROS", "setting": "INS-1 cells [1]; analogous results for INS-1 and βTC-3", "result": 10, "unit": "µM"}, {"measurement": "block of PIC-induced activation of caspase-3", "setting": "INS-1 cells [2]", "result": "up to 100%±3.4%"}, {"measurement": "inhibition of PIC-induced expression of NOX-1", "setting": "[3]; 1 μM, 24 hours", "result": 84, "unit": "%"}, {"measurement": "induction of gene NOX-1 by PIC", "setting": "[3]; NCTT-1 100 nM, ML171 1 μM", "result": "attenuated"}, {"measurement": "NOX-1 activity in human colon cancer cells", "setting": "human colon cancer cells", "result": "inhibits NOX-1 activity"}]}
